According to patent US11191835B2, “Chlorin-vitamin conjugates” (priority 2018, dated 2021):
Read-outs that look alike come from different tables or passages of the source.

Key:
[1] = tested on: triple-negative breast cancer cell BT549; format: cell-based; design: % Cell Survival: concentration or dose not given beside the values; conditions: for % Cell Survival: BT549, 24 h compound treatment followed by 2 min light irradiation (1.92 J cm^−2); for dark toxicity / dark toxicity ranking: absence of light
Protocol: (§1) Human mammary epithelial carcinoma cell lines purchased from the American Type Culture Collection ZR-75-1 (ATCC CRL-1500) and BT-549 (ATCC HTB-122) were cultured according to ATCC protocol. Briefly, ZR-75-1 cells were grown in RPMI 1640 medium (ATCC), while BT-549 were grown in RPMI 1640 containing 0.023 IU/mL insulin. Both were supplemented with 10% fetal bovine serum (FBS). Cells were grown to 80-90% confluence in 75-cm^2 culture flasks (Corning) for 4-5 days in a humidified incubator (Fisher Scientific Isotemp) with 5% CO2 at 37° C. During the incubation period, growth media was changed once with fresh pre-warmed media (pH 7.2). To harvest the cells, old growth media was aspirated out and 3 mL 0.25% trypsin solution (Thermo Sci Hyclone) were added. The cells were incubated for 5 min and the cell pellet after centrifugation was resuspended in 3 mL media, broken up gently, then 1 ml of suspended cells was transferred into a new T75 cell culture flask containing pre-warmed media (20 mL) for further culturing.
(§2) Cells were grown to confluence in a 96-well plate (5×10^4 cells/well) and treated for 24 h with compounds or photosensitizers of varying concentrations ranging from 5 nM to 50 μM) in growth media from a stock solution of 10 mM in DMSO (dimethyl sulfoxide, Fisher). After 24 h treatment, old growth media containing the PS or compounds were aspirated out and replaced with fresh media. Plates were then positioned below a non-coherent LumaCare LC-122 650 nm light source for 1, 2, and 5 min at an energy fluence rate of 16 mW/cm^2 (measured using a Newport optical power meter Model 840). Unirradiated cells served as control samples. The following day, cells were washed with pre-warmed PBS, and MTT (3-[4,5-dimethyl-thiazol-2-yl]-2.5-diphenyltetrazolium bromide, Sigma, 0.3 mg/mL) in PBS was added to each well. Samples were allowed to incubate for additional 2 h, after which dark blue crystals formed. DMSO was added to each well and plates were shaken at room temperature for 1 h to dissolve the purplish-blue formazan crystals. Absorbance values at 490 nm were measured on a microplate reader (BioRad 550). Cell survival was calculated based on the absorbance of the untreated cells alone (as control) and were directly proportional to the number of viable cells in culture. Results were reported as average of triplicate measurements.

[2] = tested on: triple-positive breast cancer cell ZR-75-1; format: cell-based; design: % Cell Survival: concentration or dose not given beside the values; conditions: for % Cell Survival: ZR-75-1, 24 h compound treatment followed by 2 min light irradiation (1.92 J cm^−2); for dark toxicity ranking / dark toxicity: unirradiated TPBC cells
Protocol: as §1, §2

[3] = tested on: Mouse colon carcinoma cell line CT26.WT; test: Cell survival (MTT) assay, CT26 colon carcinoma cells; format: cell-based
Protocol: Mouse colon carcinoma cell line CT26. WT was purchased from the American Type Culture Collection (ATCC CRL-2638). […] During the incubation period, growth media was changed once with fresh pre-warmed medium (pH 7.2). To harvest the cells, old growth media was aspirated and 5 mL 0.25% trypsin solution (Thermo Sci Hyclone, Waltham, Mass., USA) were added. The cells were incubated for 10 min and gently scraped to detach cells from the flask walls. Clumped cells were broken up gently and 1 mL of the trypsinized cell homogenate suspension was transferred into a new T75 cell culture flask containing pre-warmed media (20 mL) for further culturing. […] After 24 h treatment, old growth media containing the PS or compounds were aspirated out and replaced with fresh media. Plates were then positioned below a non-coherent LumaCare LC-122 650 nm light source for 1, 2, and 5 min at an energy fluence rate of 16 mW/cm^2 (measured using a Newport optical power meter Model 840). Unirradiated cells served as control samples. […] Samples were allowed to incubate for additional 2 h, after which dark blue crystals formed. DMSO was added to each well and plates were shaken at room temperature for 1 h to dissolve the purplish-blue formazan crystals. Absorbance values at 490 nm were measured on a microplate reader (BioRad 550). Cell survival was calculated based on the absorbance of the untreated cells alone (as control) and were directly proportional to the number of viable cells in culture. Results were reported as average of triplicate measurements.

[4] = tested on: triple-positive breast cancer cell ZR-75-1; test: Fluorescence microscopy (Hoechst 33258), ZR-75-1 cells; format: cell-based, Human; conditions: 24 h compound treatment followed by 2 min light irradiation (1.92 J cm^−2)
Protocol: Fluorescence microscopy was used to visualize and examine the cell morphological features before and after photosensitization. Specific cellular characteristics can identify the mechanism of cell death which can be exploited to understand therapeutic outcome. […] After aspirating the old growth media, 1 mL of the compound or photosensitizer (with varying concentrations) in fresh pre-warmed media at 37° C. was added to each well. […] Images were recorded using fluorescence microscopy (DAPI for Hoechst 350-390 nm excitation and 460-490 nm emission filters) using an upright fluorescence microscope with Retiga imaging 2000R (Nikon Optiphot-2, 20× and 40×) and an image processing Nikon NIS-Elements V4.0 Qimaging software.

| Compound | % Cell Survival [1] | dark toxicity ([1]; TNBC cells, 24-hr treatment) | dark toxicity ranking ([1]; TNBC cells) | % Cell Survival [2] | dark toxicity ranking [2] | Morphological Features [4] | dark toxicity [2] | other results |
| --- | --- | --- | --- | --- | --- | --- | --- | --- |
| 13^1-Hexamethylenediaminyl-Biotinylchlorin e6 dimethyl ester indium (III) chloride [Example 5] | 56% | exhibited dark toxicity | Example 3 (most phototoxic in the dark)>Example 1>Example 6>Example 5 | 12.9% | Example 3>Example 5>MePheo>Example 6 | Cell debris apparent | – | decrease in cell proliferation of colon cancer cells ([3]; irradiation for 2 min, compared to MePheo, Example 1 or Example 3): 30% |
| 13^1-Hexamethylenediaminyl-bexarotenylchlorin e6 dimethyl ester [Example 2] | 7.7% | – | – | 4.6% | – | – | – | – |
| 13^1-Hexamethylenediaminyl-bexarotenylchlorin e6 dimethyl ester indium (III) chloride [Example 6] | 33% | exhibited dark toxicity | Example 3 (most phototoxic in the dark)>Example 1>Example 6>Example 5 | 80% | Example 3>Example 5>MePheo>Example 6 | Clustered cells, intact nuclei | – | – |
| C=C(c1ccc(C(=O)O)cc1)c1cc2c(cc1C)C(C)(C)CCC2(C)C [Bexarotene, reference compound] | 111% | – | – | 110% | – | – | – | – |
| O=C(O)CCCC[C@@H]1SC[C@@H]2NC(=O)N[C@@H]21 [Biotine, biotin, reference compound] | 116% | – | – | 99% | – | – | – | toxicity to colon cancer cells (cell viability assay) ([3]; in the dark and in the presence of light, concentration up to 50 μM): not toxic |
| C=Cc1c(C)c2cc3nc(c(CC(=O)OC)c4[nH]c(cc5nc(cc1[nH]2)C(C)=C5CC)c(C)c4C(=O)NCCCCCCNC(=O)CCCC[C@@H]1SC[C@@H]2NC(=O)N[C@@H]21)[C@@H](CCC(=O)OC)[C@@H]3C [Example 1, 13^1-Hexamethylenediaminyl-biotinylchlorin e6 dimethyl ester] | 8.1% | exhibited in vitro dark cytotoxicity at 5 μM concentration | Example 3 (most phototoxic in the dark)>Example 1>Example 6>Example 5 | 4.2% | – | – | no toxicity | phototoxicity at nanomolar concentrations ([1]; TNBC cells, 100 nM to 200 nM, light activation): showed a light-activation dose response; cell inhibition ([1]; TNBC cells, 100 nM, 5 min light dose (4.8 J cm^−2)): 60%; reduction in cell proliferation ([1]; TNBC cells, 200 nM, lowest light dose used): ~50%; cell survival in the absence of light ([1]; TNBC cells, 5 μM, 24-hr treatment, no light): 86%; dark toxicity ([2]; listed as Example l): no dark toxicity; increase of cell inhibition upon irradiation compared to methyl pheophorbide (MePheo) ([3]; colon cancer cells, upon irradiation): approximately 19% |
| C=Cc1c(C)c2cc3nc(c4c5[nH]c(cc6nc(cc1[nH]2)C(C)=C6CC)c(C)c5C(=O)[C@@H]4C(=O)OC)[C@@H](CCC(=O)OC)[C@@H]3C [Methyl pheophorbide a, reference compound] | 21% | no significant dark response | – | 3.4% | Example 3>Example 5>MePheo>Example 6 | – | – | – |
| Zn(II)-13^1-Hexamethylenediaminyl-Biotinylchlorin e6 dimethyl ester [Example 3] | 16% | exhibited dark toxicity | Example 3 (most phototoxic in the dark)>Example 1>Example 6>Example 5 | 15.4% | Example 3>Example 5>MePheo>Example 6 | – | most phototoxic in the dark | – |
| Zn(II)-13^1-Hexamethylenediaminyl-bexarotenylchlorin e6 dimethyl ester [Example 4] | 108% | no significant dark response | – | 105% | – | Clustered cells, intact nuclei | no toxicity | – |
